Laboratory results: paper PMC11763059, “GENI as an AMPK Activator Binds α and γ Subunits and Improves the Memory Dysfunction of Alzheimer’s Disease Mouse Models via Autophagy and Neuroprotection” (Antioxidants, 2025)

How the values were obtained:
PC12 cells [1] = experiment: Autophagy flow assay (CYTO-ID) in PC12 cells; format: cell-based; conditions: 5 mM 3-MA + 10 μM GENI + 10 μM CQ
Method: The experiment was carried out according to the instructions of the CYTO-ID autophagy detection kit (Enzo Biochem, New York, NY, USA). In brief, we seeded 7.5 × 10^4 PC12 cells in each well of a 24-well plate using the cell slide method. The cells were incubated for 24 h at 37 °C in a 5% CO2 incubator. The experiment was divided into control (0.5% DMSO), positive control rapamycin (Rap 500 nM + chloroquine (CQ)), GENI treated-group (10 μM GENI + 10 μM CQ), 3-MA inhibitor group (5 mM 3-MA + 10 μM CQ) and GENI + 3MA group (5 mM 3-MA + 10 μM GENI + 10 μM CQ). The optimum concentration of 3MA inhibitor was referenced in the other report. At first, 0.5 mL of serum-free DMEM (plus 1% dual anti-penicillin–streptomycin) containing 3-MA (5 mM) was used to replace the medium in two groups as well as 0.5 mL of serum-free DMEM was added in the other groups, respectively. After treating for 6 h, 0.5 mL of DMEM containing DMSO (0.5%), Rap (500 nM) + CQ (10 μM), GENI (10 μM) + CQ (10 μM), CQ (10 μM), and GENI (10 μM) + CQ (10 μM) was added into the corresponding group, respectively. After 18 h, we removed the medium and washed cells twice with 1× assay buffer containing 5% FBS. We then added CYTO-ID Green detection reagent and Hocchst 33342 nuclear stain to the cells, which were incubated at 37 °C for 45 min. After three washes with 1× assay buffer, we fixed cells with 4% paraformaldehyde for 20 min. After three washes with 1× assay buffer, we observed the cells with an upright two-photon confocal microscope (Olympus FV1000BX-51, Tokyo, Japan).

PC12 cells [2] = experiment: Western blot of LC3 II/LC3 I in the autophagy flow assay; format: cell-based; conditions: 3-MA 5 mM
Method: (§1) Western blot analysis for p-AMPK α, AMPK α, p-mTOR, mTOR, p-ULK1, ULK1, and LC3-I/II was conducted according to the information described in the materials and methods section of Supplementary Information.
1.3. Western blot analysis.
For PC12 cell samples, we seeded 2 × 10^6 PC12 cells in each 60 mm dish containing 5 mL of DMEM and incubated the dish for 24 h. For the dose-dependent experiment of GENI, GENI (1, 3 and 10 μM) was added to the dishes and incubated for a period of time (2 hours for p-AMPK α, AMPK α, 48 hours for p-mTOR, mTOR and p-ULK1, ULK1; 8 hours for LC3-I/II). Cells were then collected, lysed using RAPI lysis buffer and centrifuged. The supernatants of each group were used as protein samples. For the protein samples of autophagy flow assay, we seeded 2 × 10^6 PC12 cells in each 60 mm dish containing 5 mL of DMEM and incubated the dish for 24 h.
The GENI, rapamycin and inhibitors, such as chloroquine and 3-MA were added according to the method of autophagy flow assay. After treatment of 18 h, cells were then collected, lysed using RAPI lysis buffer and centrifuged. […] The protein concentration was measured with a BCA assay kit (Beijing Cowin Biotech Company, Beijing, China). […] Bands were quantitatively measured using ImageJ software (National Institutes of Health, Bethesda, MD, USA).

[3] = Serum biochemical index of D-galactose mice; conditions: D+DON 3 mg/kg, mean ± SEM, n 7
Excerpt: (§3) Each group comprised 10 mice. […] Dosing lasted for 10 weeks. […] The mice were sacrificed after 10 weeks of administration.
(§4) At the end of the animal experiment, the epididymis fat, heart, liver, spleen, and kidney of the mice were removed for weighing analysis.

[4] = Organ weights in the D-gal induced AD mice experiment; conditions: D-gal + DON 3 mg/kg, gavage 10 weeks, mean ± SEM, n 7
Excerpt: as §3, §4

natural aging AD mice [5] = experiment: Behaviour tests in naturally aged mice with AD; format: in vivo
Method: (§2) Each group had 10 mice. GENI was dissolved in ultrapure water and administered by gavage, whereas Dor was dissolved in normal saline. The pH was adjusted to pH 5 with 0.1 M hydrochloric acid to the clarified solution and administered by intraperitoneal injection. The dosing experiment also lasted 10 weeks. Animal behavioral experiments and sampling at the end of the animal experiment were performed as described above.
The Y-maze is mainly used to study the spatial working memory ability of rodents. The Y-maze consisted of three equal-length arms (50 cm × 18 cm × 35 cm), and the angle between each two arms was 120 degrees. The mice were placed at the end of any arm of the Y-maze and allowed to explore freely for 8 min. The behavioral changes including the total number of entries and alternation (successively entering all three arms of the Y-maze once in turn) were recorded. Percentage altercation = alternation/(entries-2) × 100%. The Y-maze could effectively reflect the ability of animals to recognize and remember novel environments.
NOR was used to detect memory in rodents. We prepared a 40 × 40 × 40 cm square box, camera equipment, and behavioral analysis software. We chose three objects A, B, and C, where objects A and B were exactly the same, and object C was very different from objects A and B. After the start of the experiment, the mice were allowed to acclimate freely in the experimental apparatus for 10 min. Objects A and B were placed into the box, and the mice were allowed to explore for 5 min. We then recorded the exploration time and times. After 1 h, A and C or B and C were placed into the box. After letting the mice explore for 5 min, we recorded the exploration time of the original object and the new object. Discrimination index = exploration time of new objects/total exploration time × 100%.
The MWM installation consisted of a circular pool (120 cm in diameter and 50 cm in height), camera equipment, and a computer analysis system. In the first stage, the platform position was fixed, and mice were placed into the pool from any three of the four origins on the pool facing away from the pool wall. The time when it took for the mouse to find the platform within 120 s, called escape latency, was recorded. The training period lasted 4 days. The escape latency of the mice was recorded daily, and the average value was used as an index to evaluate the ability of learning and memory. On the 5th day, the platform was evacuated by the experimenter. The mice were placed against the platform into the water from any water entry point, and they were allowed to swim freely for 60 s. We then recorded the number of times that they crossed the platform.

natural aging AD mice [6] = experiment: Immunohistochemistry and Western blot of brain in naturally aged AD mice; format: in vivo; conditions: Dor 2 mg/kg + GENI 25 mg/kg
Method: as §2
Firstly, the three mice of each group were subjected to heart perfusion at the end of the animal experiment, and the whole brain was removed and placed in 15 mL of 4% paraformaldehyde and stored at 4 °C for 24 h. Secondly, we changed 4% paraformaldehyde into 15% sucrose solution and stored the solution at 4 °C for 24 h. We then changed the solution to 30% sucrose solution to dehydrate for 2 days. Thirdly, the mouse brain tissue was embedded in a cryo-embedding medium, and about 80 slices with a thickness of 20 μm were cut in the hippocampus using a cryostat (Thermal Fisher, Shanghai, China). The sections of mice in each group were immunohistochemically stained with primary antibodies, such as neuronal nuclear anti gen (NeuN), ionized calcium-binding adapter molecule 1 (Iba-1), inducible nitric oxide synthase (iNOS, pro-inflammatory factors), synaptophysin (Syp), and glial fibrillary acidic protein (GFAP), and secondary antibody. The product number and usage ratios of primary and secondary antibodies are detailed in Supplementary Table S4. Finally, the sections were observed under an upright two-photon confocal microscope (Olympus BX61, Tokyo, Japan) and recorded by a camera. The pictures were digitized with ImageJ software V1.8.0.112 (National Institutes of Health, Bethesda, MD, USA).
as §1
1.3. Western blot analysis. […]
The supernatants of each group were used as protein samples. For animal samples, an appropriate amount of tissue, such as cerebral cortex and hippocampus (50–100 mg), of each group was weighed, and we added lysis buffer with 1:9 ratios. After grinding and centrifuging, the supernatants of each group were used as protein samples. The protein concentration was measured with a BCA assay kit (Beijing Cowin Biotech Company, Beijing, China). Sodium dodecyl sulphate polyacrylamide gel electrophoresis (SDS-PAGE) was used to separate proteins (15 μg), which were transferred to PVDF membranes. The membrane was incubated with primary and secondary antibodies (Supplementary Table S5 for details). Antigens were visualised using a high-sensitivity chemiluminescence detection kit (Beijing Cowin Biotech Company, Beijing, China). Bands were quantitatively measured using ImageJ software (National Institutes of Health, Bethesda, MD, USA).

AMPK = experiment: Inhibitor experiment with Dor in PC12 cells (Western blot); format: cell-based; conditions: Dor pre-treatment then 10 μM GENI 2 h
Method: Firstly, 2 × 10^6 cells were added to a 60 mm Petri dish containing 5 mL of DMEM and incubated for 24 h. Secondly, the C group, GENI group, Dor group, and GENI+ Dor group were established. The dishes containing the Dor group were pre-treated with 5 μM Dor for 2 h, and the remaining groups were balanced with DMSO. The group containing 10 μM GENI was added, and the remaining groups were balanced with DMSO. After incubation for 2 h, protein extraction was performed for the Western blot experiment.

APP/PS1 mice = tested on: APP/PS1 mice; parameters: method as in PMID 31837991; conditions: APP/PS1 mice ref 27; cited from earlier work

Cn1cnc(N)c2ncnc1-2 [3-MA, reference compound]
autophagy induced by GENI, effect of the inhibitor (PC12 cells [1]): inhibited
conversion of LC3 I to LC3 II induced by GENI, effect of the inhibitor (PC12 cells [2]): diminished

COc1cc2c(cc1OC)C(=O)C(CC1CCN(Cc3ccccc3)CC1)C2 (stereo not shown) [DON, donepezil]
ALB [3]: 24.0 ± 1.6 g/L
Fat weight [4]: 0.728 ± 0.302 g
Heart weight [4]: 0.196 ± 0.048 g
Kidney weight [4]: 0.547 ± 0.034 g
Spleen weight [4]: 0.113 ± 0.015 g

c1cc(-c2cnn3cc(-c4ccc(OCCN5CCCCC5)cc4)cnc23)ccn1 [Dor, dorsomorphin]
GENI effects on escape latency and number of crossing platforms, effect of the AMPK inhibitor (natural aging AD mice [5]; Dor 2 mg/kg + GENI 25 mg/kg): partially reduced
improvement in cognitive function by GENI in Y maze and NOR tests, effect of the AMPK inhibitor (natural aging AD mice [5]; Dor 2 mg/kg i.p. once every 2 days + GENI 25 mg/kg): significantly decreased
activation of the AMPK/mTOR/ULK1 signaling pathway by GENI in hippocampus and cortex, effect of the AMPK inhibitor (natural aging AD mice [6]): suppressed
anti-inflammation effects of GENI on activated microglia and astrocytes and iNOS expression, effect of the AMPK inhibitor (natural aging AD mice [6]): significantly suppressed
effects of GENI on APP, Tau, Aβ and p-Tau, effect of the AMPK inhibitor (natural aging AD mice [6]): inhibited
increase in neurons and synaptophysin expression in hippocampus and cortex by GENI, effect of the AMPK inhibitor (natural aging AD mice [6]): significantly diminished
phosphorylation of AMPK, ULK1, and LC3 II after GENI treatment, effect of the AMPK inhibitor (AMPK): significantly decreased

O=C(O)C1=CO[C@@H](O[C@@H]2O[C@H](CO)[C@@H](O)[C@H](O)[C@H]2O)[C@@H]2C(CO)=CC[C@H]12 [GPA, geniposidic acid]
Aβ deposition in brains (APP/PS1 mice): reduce
spatial learning and memory abilities (APP/PS1 mice): significantly improve
